This is an account of results in ChEMBL document CHEMBL5465560, “Selectivity Literature for EUbOPEN Chemogenomic Library” (2024).

In data set [1] the target is T1, Serine/threonine-protein kinase TAO3 (Homo sapiens) (UniProt Q9H2K8).
T1 sequence (whole entry): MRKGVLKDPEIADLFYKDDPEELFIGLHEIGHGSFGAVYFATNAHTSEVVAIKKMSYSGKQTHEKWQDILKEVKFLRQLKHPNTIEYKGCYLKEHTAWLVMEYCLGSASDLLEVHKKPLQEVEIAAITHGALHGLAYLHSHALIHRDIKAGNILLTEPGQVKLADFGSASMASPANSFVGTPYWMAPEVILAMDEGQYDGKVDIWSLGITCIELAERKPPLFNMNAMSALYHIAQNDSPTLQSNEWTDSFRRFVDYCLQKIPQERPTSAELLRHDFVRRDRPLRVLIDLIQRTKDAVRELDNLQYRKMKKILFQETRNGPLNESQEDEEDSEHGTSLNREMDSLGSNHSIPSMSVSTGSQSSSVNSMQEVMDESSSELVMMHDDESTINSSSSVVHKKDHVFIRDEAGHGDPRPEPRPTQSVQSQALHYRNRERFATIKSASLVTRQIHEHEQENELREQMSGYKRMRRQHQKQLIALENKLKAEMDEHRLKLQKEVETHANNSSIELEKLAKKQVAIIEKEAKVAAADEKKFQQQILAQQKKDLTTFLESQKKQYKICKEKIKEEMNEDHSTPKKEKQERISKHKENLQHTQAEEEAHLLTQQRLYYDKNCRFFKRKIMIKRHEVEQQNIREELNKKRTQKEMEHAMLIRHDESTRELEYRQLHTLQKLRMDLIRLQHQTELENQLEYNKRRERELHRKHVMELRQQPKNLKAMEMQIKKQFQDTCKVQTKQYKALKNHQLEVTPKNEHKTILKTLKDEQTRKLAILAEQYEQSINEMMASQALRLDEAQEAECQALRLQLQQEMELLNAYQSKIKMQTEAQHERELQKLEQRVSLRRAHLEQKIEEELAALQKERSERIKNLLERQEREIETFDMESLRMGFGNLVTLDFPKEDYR
The data set is described as follows: Selectivity interaction (ProQinase) EUB0000171b TAOK3.

In data set [2] the target is Fibroblast growth factor receptor 1 (Homo sapiens, UniProt P11362). The data set is described as follows: Selectivity interaction (Ambit KINOMEscan and KiNATiv profiling in Jurkat cells) EUB0000090b FGFR1. The format is cell-based. The settings on record: at 1 µM.
Data set [3] concerns the target T2, cAMP-dependent protein kinase catalytic subunit PRKX (Homo sapiens) (UniProt P51817).
T2 sequence (whole entry): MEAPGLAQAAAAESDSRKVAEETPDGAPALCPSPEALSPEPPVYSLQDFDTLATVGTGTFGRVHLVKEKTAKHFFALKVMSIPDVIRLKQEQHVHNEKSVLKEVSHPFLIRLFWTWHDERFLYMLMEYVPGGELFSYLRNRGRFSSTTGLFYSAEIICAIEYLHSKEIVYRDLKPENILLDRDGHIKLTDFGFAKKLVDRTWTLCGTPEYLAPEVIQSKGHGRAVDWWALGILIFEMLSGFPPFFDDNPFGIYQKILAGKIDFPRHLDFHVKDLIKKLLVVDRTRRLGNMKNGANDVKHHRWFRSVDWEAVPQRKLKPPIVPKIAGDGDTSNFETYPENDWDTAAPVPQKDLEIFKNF
The data set is described as follows: Selectivity interaction (Ambit KINOMEscan and KiNATiv profiling in Jurkat cells) EUB0000090b PRKX. The format is cell-based. The following applies: at 1 µM.

Data set [4] has as its target LIM domain kinase 1 (Homo sapiens) (UniProt P53667). The data set is described as follows: Selectivity interaction (KinomeScan (DiscoverX)) EUB0001079a LIMK1. The following applies: at 1 µM.
The target in data set [5] is T3, Serine/threonine-protein kinase Chk1 (Homo sapiens) (UniProt O14757).
T3 sequence (whole entry): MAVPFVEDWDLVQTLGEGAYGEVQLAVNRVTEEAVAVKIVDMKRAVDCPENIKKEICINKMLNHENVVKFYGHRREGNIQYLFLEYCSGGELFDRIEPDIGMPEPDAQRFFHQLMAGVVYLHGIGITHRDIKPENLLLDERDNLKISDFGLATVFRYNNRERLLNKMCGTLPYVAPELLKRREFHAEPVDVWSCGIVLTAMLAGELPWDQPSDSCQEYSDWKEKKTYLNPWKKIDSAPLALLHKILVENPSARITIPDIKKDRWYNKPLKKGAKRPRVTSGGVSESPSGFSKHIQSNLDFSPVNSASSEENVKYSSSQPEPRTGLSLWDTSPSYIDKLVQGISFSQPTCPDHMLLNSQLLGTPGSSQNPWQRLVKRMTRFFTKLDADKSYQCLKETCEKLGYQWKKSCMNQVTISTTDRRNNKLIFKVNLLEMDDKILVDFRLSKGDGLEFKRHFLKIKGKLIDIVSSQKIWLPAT
The data set is described as follows: Selectivity interaction (KinomeScan (DiscoverX)) EUB0000655a CHEK1. The following applies: at 10 µM.

Another data set concerns the target Nav1.5 (SCN5A) (Homo sapiens, UniProt Q14524). The data set is described as follows: Selectivity interaction (Panel of kinases, GPCRs, ion channels and transporters (enzymatic assay)) EUB0000223bCl SCN5A.
In data set [6] the target is Tyrosine-protein kinase Lyn (Homo sapiens, UniProt P07948). The data set is described as follows: Selectivity interaction (Kinase panel (Invitrogen)) EUB0000639a LYN. The following applies: at 200 nM.
Data set [7] concerns the target Cyclin-dependent kinase 2 (Homo sapiens, UniProt P24941). The data set is described as follows: Selectivity interaction (ActivX KiNativ screen (kinase selectivity in THP-1 cell lysates)) EUB0000639a CDK2. The format is subcellular. The following applies: lysate.
Data set [8] deals with Phosphatidylinositol 4,5-bisphosphate 3-kinase catalytic subunit beta isoform (Homo sapiens) (UniProt P42338). The data set is described as follows: Selectivity interaction (KinomeScan (DiscoverX)) EUB0001619a PIK3CB. The following applies: at 1 µM.
Data set [9] has as its target T4, Mitogen-activated protein kinase 15 (Homo sapiens) (UniProt Q8TD08).
T4 sequence (whole entry): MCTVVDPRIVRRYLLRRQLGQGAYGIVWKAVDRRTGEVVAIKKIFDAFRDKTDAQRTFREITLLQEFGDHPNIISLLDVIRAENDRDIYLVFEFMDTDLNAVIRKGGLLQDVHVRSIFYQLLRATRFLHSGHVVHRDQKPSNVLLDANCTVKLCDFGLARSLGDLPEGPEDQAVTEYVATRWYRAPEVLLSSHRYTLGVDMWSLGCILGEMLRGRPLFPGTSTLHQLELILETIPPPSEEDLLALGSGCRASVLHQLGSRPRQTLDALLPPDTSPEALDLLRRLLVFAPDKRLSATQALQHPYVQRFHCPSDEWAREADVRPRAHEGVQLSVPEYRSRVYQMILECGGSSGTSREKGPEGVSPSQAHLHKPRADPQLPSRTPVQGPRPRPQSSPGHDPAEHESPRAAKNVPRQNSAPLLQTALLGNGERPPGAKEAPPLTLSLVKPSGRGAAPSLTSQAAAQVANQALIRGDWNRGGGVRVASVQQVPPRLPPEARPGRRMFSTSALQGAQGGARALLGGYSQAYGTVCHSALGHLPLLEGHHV
The data set is described as follows: Selectivity interaction (KinomeScan (DiscoverX)) EUB0000618a MAPK15. The settings on record: at 10 µM.

Sequence of Nav1.5 (SCN5A) (Q14524 whole entry): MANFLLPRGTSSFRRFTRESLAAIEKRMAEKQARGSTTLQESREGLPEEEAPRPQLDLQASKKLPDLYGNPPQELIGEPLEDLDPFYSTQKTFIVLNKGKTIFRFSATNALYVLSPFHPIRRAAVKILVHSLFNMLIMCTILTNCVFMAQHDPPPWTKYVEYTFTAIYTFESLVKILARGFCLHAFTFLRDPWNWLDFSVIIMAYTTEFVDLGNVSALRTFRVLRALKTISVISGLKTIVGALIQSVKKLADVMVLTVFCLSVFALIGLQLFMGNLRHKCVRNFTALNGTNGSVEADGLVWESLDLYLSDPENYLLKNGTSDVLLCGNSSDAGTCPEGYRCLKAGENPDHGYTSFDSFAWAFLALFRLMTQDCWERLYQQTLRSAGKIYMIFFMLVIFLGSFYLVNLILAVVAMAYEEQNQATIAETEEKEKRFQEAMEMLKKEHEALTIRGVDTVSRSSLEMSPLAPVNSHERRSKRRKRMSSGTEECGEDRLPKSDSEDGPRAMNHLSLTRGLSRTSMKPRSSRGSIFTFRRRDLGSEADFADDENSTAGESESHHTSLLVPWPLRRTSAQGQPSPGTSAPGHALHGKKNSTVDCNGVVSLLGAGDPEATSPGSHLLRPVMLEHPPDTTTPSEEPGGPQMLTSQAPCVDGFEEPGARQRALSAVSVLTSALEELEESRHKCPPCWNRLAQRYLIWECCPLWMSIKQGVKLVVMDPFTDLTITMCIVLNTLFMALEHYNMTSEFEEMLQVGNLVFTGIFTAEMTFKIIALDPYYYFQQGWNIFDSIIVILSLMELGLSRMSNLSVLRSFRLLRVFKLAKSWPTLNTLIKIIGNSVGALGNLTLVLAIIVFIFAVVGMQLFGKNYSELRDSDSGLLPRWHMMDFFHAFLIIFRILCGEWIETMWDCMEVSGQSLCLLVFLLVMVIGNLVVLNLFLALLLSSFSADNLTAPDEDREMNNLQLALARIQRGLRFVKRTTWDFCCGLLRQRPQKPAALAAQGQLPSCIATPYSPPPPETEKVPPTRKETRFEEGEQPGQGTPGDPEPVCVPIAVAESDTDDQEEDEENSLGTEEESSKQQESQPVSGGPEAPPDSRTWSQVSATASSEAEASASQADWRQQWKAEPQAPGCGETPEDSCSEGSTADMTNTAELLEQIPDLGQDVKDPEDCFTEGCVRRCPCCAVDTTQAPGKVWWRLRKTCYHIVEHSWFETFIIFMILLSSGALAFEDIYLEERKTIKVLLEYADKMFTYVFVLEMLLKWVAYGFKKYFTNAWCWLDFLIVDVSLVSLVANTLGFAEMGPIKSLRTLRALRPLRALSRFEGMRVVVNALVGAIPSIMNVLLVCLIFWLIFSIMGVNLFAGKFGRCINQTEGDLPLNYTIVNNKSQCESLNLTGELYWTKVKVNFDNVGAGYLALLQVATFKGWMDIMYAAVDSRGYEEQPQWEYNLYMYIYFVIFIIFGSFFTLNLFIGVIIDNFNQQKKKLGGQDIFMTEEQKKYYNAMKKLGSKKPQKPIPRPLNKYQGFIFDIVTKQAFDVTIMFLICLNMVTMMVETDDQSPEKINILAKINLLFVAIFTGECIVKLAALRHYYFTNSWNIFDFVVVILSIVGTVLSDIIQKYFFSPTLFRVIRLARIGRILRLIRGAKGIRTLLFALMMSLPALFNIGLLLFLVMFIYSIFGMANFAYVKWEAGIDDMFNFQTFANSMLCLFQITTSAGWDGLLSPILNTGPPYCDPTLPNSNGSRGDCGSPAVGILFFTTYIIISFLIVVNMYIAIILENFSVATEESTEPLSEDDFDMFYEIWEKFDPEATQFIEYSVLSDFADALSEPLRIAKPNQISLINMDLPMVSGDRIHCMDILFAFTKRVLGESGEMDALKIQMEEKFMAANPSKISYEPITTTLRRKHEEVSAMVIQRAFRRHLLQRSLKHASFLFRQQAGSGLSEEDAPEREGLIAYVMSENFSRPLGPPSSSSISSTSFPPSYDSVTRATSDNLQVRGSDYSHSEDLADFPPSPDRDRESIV
Sequence of LIM domain kinase 1 (Homo sapiens) (P53667 whole entry, looked up, the tested form may be a part): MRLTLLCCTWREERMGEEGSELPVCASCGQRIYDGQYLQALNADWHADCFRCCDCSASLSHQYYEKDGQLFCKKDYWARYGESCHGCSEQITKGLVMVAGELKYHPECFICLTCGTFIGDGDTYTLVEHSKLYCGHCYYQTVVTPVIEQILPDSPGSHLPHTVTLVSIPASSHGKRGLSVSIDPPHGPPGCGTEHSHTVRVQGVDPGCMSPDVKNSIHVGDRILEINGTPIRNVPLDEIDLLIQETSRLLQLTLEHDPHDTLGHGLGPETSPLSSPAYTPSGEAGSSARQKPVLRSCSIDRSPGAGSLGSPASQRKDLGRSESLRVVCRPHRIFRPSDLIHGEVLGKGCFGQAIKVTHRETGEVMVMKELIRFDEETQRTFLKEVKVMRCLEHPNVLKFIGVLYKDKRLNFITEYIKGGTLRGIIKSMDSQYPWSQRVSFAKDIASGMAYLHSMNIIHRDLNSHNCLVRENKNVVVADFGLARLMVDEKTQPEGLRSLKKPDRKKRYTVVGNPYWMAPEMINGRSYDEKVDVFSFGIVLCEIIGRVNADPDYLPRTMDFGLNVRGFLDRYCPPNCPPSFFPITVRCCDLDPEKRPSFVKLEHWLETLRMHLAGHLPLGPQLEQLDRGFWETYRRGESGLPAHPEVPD
Sequence of Phosphatidylinositol 4,5-bisphosphate 3-kinase catalytic subunit beta isoform (Homo sapiens) (P42338 whole entry, looked up, canonical isoform): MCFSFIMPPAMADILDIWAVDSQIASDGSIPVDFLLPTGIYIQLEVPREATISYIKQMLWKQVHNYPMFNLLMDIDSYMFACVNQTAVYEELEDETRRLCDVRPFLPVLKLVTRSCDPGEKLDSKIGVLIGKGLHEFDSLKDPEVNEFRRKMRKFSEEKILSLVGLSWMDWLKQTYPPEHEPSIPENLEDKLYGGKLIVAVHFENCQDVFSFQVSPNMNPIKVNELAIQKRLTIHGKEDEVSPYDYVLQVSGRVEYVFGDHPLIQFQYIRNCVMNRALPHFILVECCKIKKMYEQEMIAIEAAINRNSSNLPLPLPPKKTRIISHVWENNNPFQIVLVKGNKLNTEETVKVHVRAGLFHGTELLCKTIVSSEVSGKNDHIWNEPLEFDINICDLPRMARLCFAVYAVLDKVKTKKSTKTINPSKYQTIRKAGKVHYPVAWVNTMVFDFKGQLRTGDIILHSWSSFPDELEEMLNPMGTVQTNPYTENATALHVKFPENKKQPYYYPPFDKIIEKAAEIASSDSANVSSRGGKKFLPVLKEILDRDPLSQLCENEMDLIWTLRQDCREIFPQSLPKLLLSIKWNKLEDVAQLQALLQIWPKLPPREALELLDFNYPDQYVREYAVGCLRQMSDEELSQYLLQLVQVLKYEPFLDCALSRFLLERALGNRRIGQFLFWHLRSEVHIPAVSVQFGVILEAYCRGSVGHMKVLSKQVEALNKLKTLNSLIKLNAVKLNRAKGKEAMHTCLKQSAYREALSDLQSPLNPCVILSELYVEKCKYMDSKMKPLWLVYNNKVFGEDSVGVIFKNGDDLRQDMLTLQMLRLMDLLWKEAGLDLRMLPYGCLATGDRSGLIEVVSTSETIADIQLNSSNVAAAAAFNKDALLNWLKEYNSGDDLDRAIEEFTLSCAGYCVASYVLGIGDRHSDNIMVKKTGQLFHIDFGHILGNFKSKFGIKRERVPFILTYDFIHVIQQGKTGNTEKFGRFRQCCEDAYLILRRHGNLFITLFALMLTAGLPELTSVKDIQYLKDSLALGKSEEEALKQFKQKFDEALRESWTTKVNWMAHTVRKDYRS
Sequence of Fibroblast growth factor receptor 1 (P11362 22-822 limits assumed): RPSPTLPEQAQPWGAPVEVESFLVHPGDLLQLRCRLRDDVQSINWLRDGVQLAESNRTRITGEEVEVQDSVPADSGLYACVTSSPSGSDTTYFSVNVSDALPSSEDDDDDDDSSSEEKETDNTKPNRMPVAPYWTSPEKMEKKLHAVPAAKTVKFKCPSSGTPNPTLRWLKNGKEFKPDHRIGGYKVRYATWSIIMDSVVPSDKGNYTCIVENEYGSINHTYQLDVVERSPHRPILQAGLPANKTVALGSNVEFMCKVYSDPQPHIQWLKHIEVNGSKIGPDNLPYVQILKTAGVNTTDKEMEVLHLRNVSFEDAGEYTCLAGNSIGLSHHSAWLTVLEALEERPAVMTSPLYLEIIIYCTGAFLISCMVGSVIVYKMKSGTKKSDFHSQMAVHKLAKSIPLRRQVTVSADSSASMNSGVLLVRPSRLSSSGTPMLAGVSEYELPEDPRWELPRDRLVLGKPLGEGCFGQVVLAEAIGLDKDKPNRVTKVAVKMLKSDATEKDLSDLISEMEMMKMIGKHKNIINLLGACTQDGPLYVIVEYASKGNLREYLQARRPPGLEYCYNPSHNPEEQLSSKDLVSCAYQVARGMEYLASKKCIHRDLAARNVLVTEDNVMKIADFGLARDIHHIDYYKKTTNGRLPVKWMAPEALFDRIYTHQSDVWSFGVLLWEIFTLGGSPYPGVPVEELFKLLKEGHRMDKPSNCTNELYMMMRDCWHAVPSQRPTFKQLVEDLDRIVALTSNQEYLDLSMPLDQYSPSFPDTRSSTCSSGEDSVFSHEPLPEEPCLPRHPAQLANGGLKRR
Sequence of Tyrosine-protein kinase Lyn (P07948 2-512 limits assumed): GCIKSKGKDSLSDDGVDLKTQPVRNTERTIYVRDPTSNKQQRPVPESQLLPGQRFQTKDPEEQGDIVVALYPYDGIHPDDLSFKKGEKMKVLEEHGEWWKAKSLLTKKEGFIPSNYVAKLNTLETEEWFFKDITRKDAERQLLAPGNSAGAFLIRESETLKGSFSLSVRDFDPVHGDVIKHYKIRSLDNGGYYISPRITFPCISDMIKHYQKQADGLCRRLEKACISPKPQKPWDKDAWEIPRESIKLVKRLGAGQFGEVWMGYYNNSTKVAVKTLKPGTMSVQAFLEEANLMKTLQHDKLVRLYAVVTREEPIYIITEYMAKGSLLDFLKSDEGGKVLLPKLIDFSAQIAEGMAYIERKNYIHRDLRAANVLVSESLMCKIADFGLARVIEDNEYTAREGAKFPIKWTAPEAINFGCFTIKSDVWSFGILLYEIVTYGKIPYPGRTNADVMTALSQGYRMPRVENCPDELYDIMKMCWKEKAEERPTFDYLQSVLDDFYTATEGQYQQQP

With `C=CC(=O)Nc1cccc(C(=O)Nc2ccc(Nc3cc(-c4[nH]c(SC)nc4C)ccn3)cc2)c1`, the % of control in [1] (at 1 µM) was 95%; in data set [1] (at 5 µM), 72%.

With `CN(C)C/C=C/C(=O)Nc1ccc(C(=O)N2CCCC(Nc3ncc(Cl)c(-c4c[nH]c5ccccc45)n3)C2)cc1` (stereo not given), the % of control in [2] turned out to be 82%; in [3] it was 89%.

In [4], `Nc1cnc(N2CCc3cc(S(=O)(=O)Nc4c(F)cc(Cl)cc4F)cc(N4CCCC4=O)c32)nc1` [TP-020n] had a % of control of 100%.

For the compound `CN(C)CCOc1ccc(-c2nc(-c3ccncc3)c(-c3ccc4c(c3)CC/C4=N\O)[nH]2)cc1`, the % of control in data set [5] is 80%.

In turn, `COc1cc(C(=O)N2CC[C@@H](O)[C@@H](N)C2)cc2nc(-c3cc4ccccc4n3CC3CC3)n(C)c12` had an XC50 at Nav1.5 (SCN5A) of 39.8 µM.

As for `CC[C@@H]1[C@H](F)C(=O)N[C@@H]1COc1nccc2cc(C(N)=O)c(OC)cc12` [ZIMLOVISERTIB], the % of inhibition in [6] was 14.9%; in data set [7] (at 0.01 µM), 1.9%; in [7] (at 0.04 µM), -4%; in data set [7] (at 0.2 µM), 12.3%; in data set [7] (at 1 µM), -8.5%; in data set [7] (at 5 µM), 6.3%.

`N#Cc1cccc(-c2c[nH]c3ncnc(N4CCOCC4)c23)c1`: in [8], the % of control was determined as 100%.

The compound `O[C@H]1CC[C@H](Nc2ncc3nc(Nc4c(F)cc(F)cc4F)n([C@H]4CCOC4)c3n2)CC1` had a % of control in data set [9] of 100%.
